# From US20070292895A1, “Assays and methods to detect beta-secretase and its activity in body fluids and tissue extracts” (priority 2006, published 2007)
# Non-standard residues stand in square brackets, D forms with d. Residues, ends and D or L forms follow the SMILES beside them. *: point of attachment. Sta = CC(C)C[C@H](N)[C@@H](O)CC(=O)O; Isovaleryl = CC(C)CC(=O)*
# How the values were obtained:
# BACE-1 = target: T1, BACE-1 (Mus musculus, UniProt P56818); test: Brain BACE-1 activity assay, brain membrane extract, coumarin-labeled 10-mer substrate, HPLC detection; assay type: biochemical; settings: E64 at 10 μM; membrane preparations from WT mice
# T1 construct: a brain membrane extract containing endogenous BACE-1; from tissue; host or cells: mouse brain membrane preparation (wild-type mice)
# Method: (§1) Brain BACE-1 enzymatic activity was measured using brain membrane extracts in a two-step method. In the first reaction step, a brain membrane extract containing endogenous BACE-1 is reacted with a coumarin labeled 10-mer peptide substrate in the presence of non-specific protease inhibitor cocktail and aspartyl protease inhibitor Pepstatin A. In a second detection step, an HPLC-based detection method is used to determine the extent of enzymatic cleavage of the 10-mer substrate.
# (§2) Brain membranes are prepared as follows. Mice brain sections are homogenized in 10× w/v 50 mM MES buffer with protease inhibitor (Roche Applied Science, Indianapolis, Ind., Cat#11836145), pH 6.0 using a glass/Teflon homogenizer, using about 10 strokes. The homogenates are then spun at 2000 rpm (900×g) at 4° C. for 10 minutes. […] Protein concentration is determined using modified Bradford method (DC protein assay kit Cat#500-0114, Bio-Rad Laboratories, Hercules, Calif.). […]
# (§3) In the second step, the BACE-1 cleavage product is detected. The resulting mixture is then chromatographed in a Waters Alliance HT HPLC system (Waters 2790, Waters Corporation, Milford, Mass.) to detect product and substrate fluorescence as follows. […]
# (§4) The amount of cleaved product and substrate are detected with excitation at 340 nm and emission at 440 nm.
# BACE-1 activity in CSF = test: CSF BACE-1 activity with combinations of protease inhibitors (FIG. 9); assay type: biochemical; settings: Merck-3 at 10 μM; Pepstatin A 10 μM present
# Method: (§5) This example illustrates a method for solution based detection of BACE-1 activity in cerebral spinal fluid (CSF). BACE-1 enzymatic activity in CSF was measured using a two-step method. In the first step, cleavage of a biotinylated peptide substrate is accomplished using CSF as the source of BACE-1 enzyme. In the second step, the extent of enzymatic cleavage of substrate is detected using an avidin-biotin complex and enzyme linked immunosorbent assay (ELISA).
# (§6) In the peptide substrate cleavage step, 25 μL of either purified recombinant baculovirus expressed BACE-1(aa1-460) at a range of concentration from 0.8 pM to 100 pM or rhesus or human CSF is added to the wells of a 96 well assay plate (COSTAR brand, Cat#3365). […]
# (§7) In the second step, the product of BACE-1 enzymatic cleavage of the biotin-labeled peptide is measured by ELISA. […]
# (§8) Afterwards, the plate is washed three times with PBST. […] The reaction is finally developed using 100 μL/well of CDP-STAR ready-to-use with HRP substrate (EMD Biosciences, Inc. San Diego, Calif.) or SAPPHIRE-II Enhancer substrate (Applied Biosystems, Foster City, Calif., Cat# T2214) for 30 minutes at room temperature. Absorbance or Luminescence counts, respectively, are measured in LJL-Analyst (Molecular Devices Corp., Sunnyvale, Calif.). […]
# [1] = system: non-specific aspartyl protease activity; test: Non-specific aspartyl protease activity in brain membrane preparations, same HPLC cleavage assay; assay type: biochemical, mouse; settings: membrane preparations from WT mice
# Method: as §1, §2, §3, §4
# [2] = system: non-specific aspartyl protease activity; test: Non-specific aspartyl protease activity in CSF (FIG. 9); assay type: biochemical; settings: Pepstatin A 10 μM; this activity was about 59% of the protease activity in CSF
# Method: as §5, §6, §7, §8
# T1 sequence (P56818 46-501): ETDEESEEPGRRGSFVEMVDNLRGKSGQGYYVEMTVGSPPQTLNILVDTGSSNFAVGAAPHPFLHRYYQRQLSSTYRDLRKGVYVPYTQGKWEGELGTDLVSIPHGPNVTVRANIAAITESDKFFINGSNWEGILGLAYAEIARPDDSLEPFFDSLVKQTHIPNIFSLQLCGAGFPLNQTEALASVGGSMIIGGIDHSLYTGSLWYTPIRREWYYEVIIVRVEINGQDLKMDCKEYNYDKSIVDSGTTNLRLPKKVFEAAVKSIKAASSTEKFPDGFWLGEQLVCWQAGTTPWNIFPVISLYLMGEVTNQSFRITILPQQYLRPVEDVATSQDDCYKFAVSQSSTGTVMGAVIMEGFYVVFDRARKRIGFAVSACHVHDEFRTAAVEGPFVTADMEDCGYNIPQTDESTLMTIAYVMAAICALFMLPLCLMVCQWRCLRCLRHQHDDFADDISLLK
smiles,measurement,setting,value
CC(C)C[C@H](NC(=O)[C@H]1O[C@@H]1C(=O)O)C(=O)NCCCCN=C(N)N [E64],effect on cleavage of substrate (FIG. 4),BACE-1,no effect on cleavage of substrate
C[C@@H](NC(=O)c1cc(C(=O)N[C@@H](Cc2ccccc2)[C@H](O)CNC2CC2)cc(N(C)S(C)(=O)=O)c1)c1ccccc1 [Merck-3],BACE-1 activity in CSF remaining after Pepstatin A (FIG. 9),BACE-1 activity in CSF,completely abolished
"CC(C)CC(=O)N[C@H](C(=O)N[C@H](C(=O)N[C@@H](CC(C)C)[C@@H](O)CC(=O)N[C@@H](C)C(=O)N[C@@H](CC(C)C)[C@@H](O)CC(=O)O)C(C)C)C(C)C [Pepstatin A, pepstatin A] (Isovaleryl-VV[Sta]A[Sta]-OH)",non-specific aspartyl protease activity (FIG. 4),[1],abolished
same,non-specific aspartyl protease activity in CSF (FIG. 9),[2],abolished
